In USRE37781E1, “Substituted cyclic carbonyls and derivatives thereof useful as retroviral protease inhibitors” (DuPont Pharmaceuticals Company, priority 1991, dated 2002) one finds Ki and IC90 data, which are given here for 22 compounds.

In one experiment the target is T1, HIV protease (Human immunodeficiency virus type 1 group M subtype B, UniProt P04585).
T1 construct: plasmid containing HIV protease under the control of an inducible T7 promoter; made in house; host or cells: E. coli (inclusion bodies, T7 promoter)
Kind of experiment: biochemical. Set-up: species or system HIV-1. The protocol:
HIV Protease Inhibition Assay—Spectroscopic Method
Inclusion bodies were solubilized in 8M urea, 50 mM tris pH 8.0. Protease activity was recovered by dilution 20-fold into buffer containing 50 mM sodium acetate pH 5.5, 1 mM EDTA, 10% glycerol and 5% ethylene glycol. Enzyme was used at a final concentration of 1.0-10 ug/ml.
Stock solutions of 10 mM were prepared in DMSO.
All further dilutions were done in DMSO.

The next experiment concerns HIV-1 (RF) in MT-2 cells. Nature of the experiment: microbe, parasite or virus in culture. Format: cell-based. In short, it runs like this:
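Read-out: gag and pol viral RNA captured by 5′-biotinylated oligonucleotides on streptavidin-coated wells, detected with alkaline phosphatase-linked reporter oligonucleotides, calibrated against BH10 in vitro transcripts. Virus stocks (RF, MN, IIIB) come from H9 cultures; MT-2 host cells kept in RPMI 1640, 5% FCS.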

[1] abbreviates: Table 1d, upper part, read-out: Ki.
The mark [2] stands for this setting: Human immunodeficiency virus 1, MT2, 24 h, Table 1d, upper part, read-out: IC90.
Setting [3] is: Human immunodeficiency virus 1, MT2, Table 1e, read-out: IC90.

SMILES strings stand for the structures. Converted amounts (≈) assume the structure as drawn. Read-outs that look alike come from different tables or passages of the source.

`O=C1N(CC2CC2)C(Cc2ccccc2)C2OC(=S)OC2C(Cc2ccccc2)N1CC1CC1` (centres unmarked) [Example 7I]: the Ki (commonly the equilibrium dissociation constant of an inhibitor or competing ligand from its target) at HIV protease (setting [1]) lay within 10 to 1000 nM. Besides, the IC90 (usually the point of the concentration-response curve where the effect stands at 90%) in the experiment on HIV-1 (RF) in MT-2 cells (setting [2]) was below 10 µg/mL.

Consider `O=C1N(Cc2cccc(CO)c2)C(Cc2ccccc2)C(O)C(C(Br)Cc2ccccc2)N1Cc1cccc(CO)c1` (centres unmarked) [Example 8V], for which, at HIV protease (Table 1e, read-out: Ki), the Ki lay within 10 to 1000 nM. The IC90 with HIV-1 (RF) in MT-2 cells (setting [3]) is below 10 µg/mL.

`C=CCN1C(=O)N(CCCC)C(Cc2ccccc2)C2OC(=O)OC2C1Cc1ccccc1` (centres unmarked) [Example 7E]: the Ki on HIV protease (Ki) lay within 10 to 1000 nM. Also, the 90% effect concentration (IC90) with HIV-1 (RF) in MT-2 cells (setting [2]) is below 10 µg/mL.

`O=C1N(Cc2ccccc2)C(Cc2ccccc2)C(O)C2C(Cc3ccccc3)N12` (centres unmarked) [Example 21D]: the Ki at HIV protease (Table 2j, read-out: Ki) was above 1000 nM. The IC90 entry with HIV-1 (RF) in MT-2 cells (Table 2j) is recorded as “++/+ (The ++/+ is used in the cases where an IC90 was determined to be >50 μg/mL)”.

Turning to `CS(=O)(=O)OC1C(O)C(Cc2ccccc2)N(Cc2ccc3ccccc3c2)C(=O)N(Cc2ccc3ccccc3c2)C1Cc1ccccc1` (centres unmarked) [Example 7o], on HIV protease (setting [1]), the Ki was 10 to 1000 nM. For the same compound, the IC90 in the experiment on HIV-1 (RF) in MT-2 cells (setting [2]) is below 10 µg/mL.

With `NC(=O)c1cccc(CN2C(=O)N(Cc3cccc(C(N)=O)c3)C(Cc3ccccc3)C(O)C2CCc2ccccc2)c1` (centres unmarked) [Example 8AP], the Ki on HIV protease (Table 1e, read-out: Ki) is above 1000 nM. In addition, the concentration for an effect of 90% (IC90) in the experiment on HIV-1 (RF) in MT-2 cells (setting [3]) was above 100 µg/mL.

Take `O=C1N(Cc2ccc3ccccc3c2)[C@H](Cc2ccccc2)C[C@@H](O)[C@@H](Cc2ccccc2)N1Cc1ccc2ccccc2c1` [Example 7T]: the Ki at HIV protease (setting [1]) is below 10 nM. Moreover, in the experiment on HIV-1 (RF) in MT-2 cells (setting [2]), the IC90 was above 100 µg/mL.

For the compound `O=C1N(Cc2cccc(-c3noc(C(F)(F)F)n3)c2)[C@H](CCc2ccccc2)[C@@H](O)[C@@H](Cc2ccccc2)N1Cc1cccc(-c2noc(C(F)(F)F)n2)c1` [Example 8X], the Ki on HIV protease (Table 1e, read-out: Ki) is 10 to 1000 nM. Besides, the IC90 with HIV-1 (RF) in MT-2 cells (setting [3]) lay in the range of 10 to 100 µg/mL (≈ 13.1 to 131 µM).

Turning to `NC(=NO)c1cccc(CN2C(=O)N3C(Cc4ccccc4)C3C(O)C2Cc2ccccc2)c1` (centres unmarked) [Example 21H], the Ki on HIV protease (Table 2j, read-out: Ki) was in the range of 10 to 1000 nM. Further, the IC90 entry with HIV-1 (RF) in MT-2 cells (Table 2j) was “+++ (+++=<10 μg/mL)”.

In the case of `C=CCN1C(=O)N(CC=C)[C@H](Cc2ccccc2)[C@H](O)C1C(F)Cc1ccccc1` (some centres unmarked) [Example 7W], the inhibition constant Ki on HIV protease (Table 1e, read-out: Ki) is 10 to 1000 nM. The IC90 in the experiment with HIV-1 (RF) in MT-2 cells (setting [3]) is 10 to 100 µg/mL (≈ 24.5 to 245 µM).

Take `O=C1N(Cc2ccc3ccccc3c2)C(Cc2ccccc2)C2OS(=O)OC2C(Cc2ccccc2)N1Cc1ccc2ccccc2c1` (centres unmarked) [Example 7M]: the Ki at HIV protease (setting [1]) was below 10 nM. For the same compound, the IC90 in the experiment with HIV-1 (RF) in MT-2 cells (setting [2]) is below 10 µg/mL.

Turning to `CC(=O)OC1C(Cc2ccccc2)N(Cc2ccccc2)C(=O)N2C(Cc3ccccc3)C12` (centres unmarked) [Example 21B], on HIV protease (Table 2j, read-out: Ki), the inhibitory constant (Ki) was above 1000 nM. The IC90 entry in the experiment on HIV-1 (RF) in MT-2 cells (Table 2j) is “++/+ (The ++/+ is used in the cases where an IC90 was determined to be >50 μg/mL)”.

For the compound `C=CCN1C(=O)N(CCCC)C(Cc2ccccc2)C2OS(=O)OC2C1Cc1ccccc1` (centres unmarked) [Example 7D], on HIV protease (setting [1]), the Ki was below 10 nM. Further, in the experiment with HIV-1 (RF) in MT-2 cells (setting [2]), the IC90 fell in the range of 10 to 100 µg/mL (≈ 21.3 to 213 µM).

As for `NC(=O)c1cccc(CN2C(=O)N3C(Cc4ccccc4)C3C(O)C2Cc2ccccc2)c1` (centres unmarked) [Example 21G], the Ki on HIV protease (Table 2j, read-out: Ki) lay within 10 to 1000 nM. The IC90 entry in the experiment with HIV-1 (RF) in MT-2 cells (Table 2j) was “++ (++=10 to 100 μg/mL)”.

`O=C1OC2C(OC1=O)C(Cc1ccccc1)N(Cc1ccc3ccccc3c1)C(=O)N(Cc1ccc3ccccc3c1)C2Cc1ccccc1` (centres unmarked) [Example 7P]: the Ki at HIV protease (setting [1]) was below 10 nM. The IC90 in the experiment on HIV-1 (RF) in MT-2 cells (setting [2]) was below 10 µg/mL.

Turning to `O=C1N(Cc2ccc3ccccc3c2)C(Cc2ccccc2)C2OC(=S)OC2C(Cc2ccccc2)N1Cc1ccc2ccccc2c1` (centres unmarked) [Example 7N], the Ki at HIV protease (setting [1]) was above 1000 nM. In the experiment with HIV-1 (RF) in MT-2 cells (setting [2]), the IC90 was above 100 µg/mL.

Consider `O=C1N(Cc2ccc(CO)cc2)[C@H](CCc2ccccc2)C[C@@H](Cc2ccccc2)N1Cc1ccc(CO)cc1` [Example 8AC], for which, at HIV protease (Table 1e, read-out: Ki), the Ki lay within 10 to 1000 nM. In addition, the IC90 with HIV-1 (RF) in MT-2 cells (setting [3]) is below 10 µg/mL.

On HIV protease (Ki), `O=C1N(Cc2cccc(O)c2)C(C(F)Cc2ccccc2)[C@@H](O)[C@@H](Cc2ccccc2)N1Cc1cccc(O)c1` (some centres unmarked) [Example 8F] returned a Ki of 10 to 1000 nM. The IC90 in the experiment on HIV-1 (RF) in MT-2 cells (setting [3]) is below 10 µg/mL.

For `N#CN=C1N(Cc2cccc(C=O)c2)C(Cc2ccccc2)C(O)C(O)C(Cc2ccccc2)N1Cc1cccc(C=O)c1` (centres unmarked) [Example 1CP], the Ki at HIV protease (Ki) was below 10 nM. Besides, the IC90 in the experiment on HIV-1 (RF) in MT-2 cells (Human immunodeficiency virus 1, MT2, Table 1c, read-out: IC90) is below 10 µg/mL.

With `C=CCN1C(=O)N(CC=C)C(Cc2ccccc2)C(OC(C)=O)C(O)C1Cc1ccccc1` (centres unmarked) [Example 7A], at HIV protease (setting [1]), the Ki is above 1000 nM. In the experiment on HIV-1 (RF) in MT-2 cells (setting [2]), the IC90 is below 10 µg/mL.

Turning to `CC(=O)c1cccc(CN2C(=O)N(Cc3cccc(C(C)=O)c3)[C@H](Cc3ccccc3)[C@H](O)[C@H]2CCc2ccccc2)c1` [Example 8P], the Ki at HIV protease (Ki) was below 10 nM. The IC90 with HIV-1 (RF) in MT-2 cells (setting [3]) was below 10 µg/mL.

Take `O=C1N(Cc2cccc(OCc3ccccc3)c2)C(Cc2ccccc2)C(O)C2C(Cc3ccccc3)N12` (centres unmarked) [Example 21E]: the Ki on HIV protease (Table 2j, read-out: Ki) was above 1000 nM. In addition, the IC90 entry in the experiment on HIV-1 (RF) in MT-2 cells (Table 2j) is “++/+ (The ++/+ is used in the cases where an IC90 was determined to be >50 μg/mL)”.
